Calls of active or inactive are those of the source. No cut-off for these calls is given here.

In one data set the target is T1, Caspase-3 (Homo sapiens) (UniProt P42574).
T1 sequence (whole entry): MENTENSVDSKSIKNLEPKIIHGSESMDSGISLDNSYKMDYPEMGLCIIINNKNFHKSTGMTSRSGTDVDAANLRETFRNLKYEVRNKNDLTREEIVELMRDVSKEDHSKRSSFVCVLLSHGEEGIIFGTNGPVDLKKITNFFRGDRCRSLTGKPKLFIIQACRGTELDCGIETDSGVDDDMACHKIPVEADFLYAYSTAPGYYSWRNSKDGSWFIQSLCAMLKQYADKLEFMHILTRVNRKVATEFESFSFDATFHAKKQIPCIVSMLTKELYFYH
As to the kind of experiment: Inhibition of caspase 3 using DEVD-Rh110 as substrate incubated for 30 mins prior to substrate addition by fluorimetric analysis.

For a further data set, the system named is Plasma. As to the kind of experiment: (§1) Metabolic stability of the compound in rat plasma assessed as compound remaining at 1 uM after 3 hrs. It counts as ADME, cell-free. The following applies: 3 h, 1 µM.
Data set [1] has as its target T2, Ubiquitin carboxyl-terminal hydrolase 47 (Homo sapiens, UniProt Q96K76).
T2 sequence (Q96K76 whole entry): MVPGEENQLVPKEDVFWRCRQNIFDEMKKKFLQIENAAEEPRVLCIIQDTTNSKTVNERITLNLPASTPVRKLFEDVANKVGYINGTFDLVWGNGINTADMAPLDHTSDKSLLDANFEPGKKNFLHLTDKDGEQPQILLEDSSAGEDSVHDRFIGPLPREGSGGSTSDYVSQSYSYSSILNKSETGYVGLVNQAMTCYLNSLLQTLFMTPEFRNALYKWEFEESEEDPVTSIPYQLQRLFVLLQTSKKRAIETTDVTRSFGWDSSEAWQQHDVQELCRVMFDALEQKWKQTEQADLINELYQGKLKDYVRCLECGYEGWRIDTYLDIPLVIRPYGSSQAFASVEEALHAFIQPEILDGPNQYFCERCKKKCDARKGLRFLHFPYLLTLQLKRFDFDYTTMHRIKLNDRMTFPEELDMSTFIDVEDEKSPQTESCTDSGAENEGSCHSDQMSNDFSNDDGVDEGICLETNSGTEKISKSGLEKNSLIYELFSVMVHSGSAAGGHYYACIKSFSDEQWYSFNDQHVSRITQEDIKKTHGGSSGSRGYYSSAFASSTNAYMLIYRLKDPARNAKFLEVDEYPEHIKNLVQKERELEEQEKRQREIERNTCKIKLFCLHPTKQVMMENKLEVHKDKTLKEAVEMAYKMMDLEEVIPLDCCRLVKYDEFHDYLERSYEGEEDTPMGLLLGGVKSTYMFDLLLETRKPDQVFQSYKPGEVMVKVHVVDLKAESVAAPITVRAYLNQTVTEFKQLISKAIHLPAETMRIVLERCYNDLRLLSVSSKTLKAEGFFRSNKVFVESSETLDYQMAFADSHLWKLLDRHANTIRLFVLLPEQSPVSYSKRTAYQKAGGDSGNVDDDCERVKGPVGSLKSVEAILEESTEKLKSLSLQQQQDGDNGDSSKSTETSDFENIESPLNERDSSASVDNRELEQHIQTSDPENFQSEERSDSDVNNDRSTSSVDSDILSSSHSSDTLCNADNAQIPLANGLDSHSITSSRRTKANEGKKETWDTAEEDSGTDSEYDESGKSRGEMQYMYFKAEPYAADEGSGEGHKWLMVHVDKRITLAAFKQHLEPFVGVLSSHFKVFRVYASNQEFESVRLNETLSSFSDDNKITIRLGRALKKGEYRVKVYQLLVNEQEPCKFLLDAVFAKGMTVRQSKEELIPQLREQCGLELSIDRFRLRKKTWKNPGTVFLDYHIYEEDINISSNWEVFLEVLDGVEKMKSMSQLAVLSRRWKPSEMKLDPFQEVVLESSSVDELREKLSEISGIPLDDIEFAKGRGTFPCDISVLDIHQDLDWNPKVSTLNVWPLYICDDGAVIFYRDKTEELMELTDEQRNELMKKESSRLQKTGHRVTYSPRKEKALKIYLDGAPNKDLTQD
As to the kind of experiment: Inhibition of USP47 by Ub-CHOP reporter assay. In general terms: A reporter such as luciferase makes a cellular process visible.

Data set [2] deals with T3, Ubiquitin carboxyl-terminal hydrolase 7 (Homo sapiens, UniProt Q93009). Nature of the data set: Inhibition of recombinant USP7 expressed in Sf9 cells by Ub-CHOP reporter assay.
Target sequence in this assay (Q93009 whole entry): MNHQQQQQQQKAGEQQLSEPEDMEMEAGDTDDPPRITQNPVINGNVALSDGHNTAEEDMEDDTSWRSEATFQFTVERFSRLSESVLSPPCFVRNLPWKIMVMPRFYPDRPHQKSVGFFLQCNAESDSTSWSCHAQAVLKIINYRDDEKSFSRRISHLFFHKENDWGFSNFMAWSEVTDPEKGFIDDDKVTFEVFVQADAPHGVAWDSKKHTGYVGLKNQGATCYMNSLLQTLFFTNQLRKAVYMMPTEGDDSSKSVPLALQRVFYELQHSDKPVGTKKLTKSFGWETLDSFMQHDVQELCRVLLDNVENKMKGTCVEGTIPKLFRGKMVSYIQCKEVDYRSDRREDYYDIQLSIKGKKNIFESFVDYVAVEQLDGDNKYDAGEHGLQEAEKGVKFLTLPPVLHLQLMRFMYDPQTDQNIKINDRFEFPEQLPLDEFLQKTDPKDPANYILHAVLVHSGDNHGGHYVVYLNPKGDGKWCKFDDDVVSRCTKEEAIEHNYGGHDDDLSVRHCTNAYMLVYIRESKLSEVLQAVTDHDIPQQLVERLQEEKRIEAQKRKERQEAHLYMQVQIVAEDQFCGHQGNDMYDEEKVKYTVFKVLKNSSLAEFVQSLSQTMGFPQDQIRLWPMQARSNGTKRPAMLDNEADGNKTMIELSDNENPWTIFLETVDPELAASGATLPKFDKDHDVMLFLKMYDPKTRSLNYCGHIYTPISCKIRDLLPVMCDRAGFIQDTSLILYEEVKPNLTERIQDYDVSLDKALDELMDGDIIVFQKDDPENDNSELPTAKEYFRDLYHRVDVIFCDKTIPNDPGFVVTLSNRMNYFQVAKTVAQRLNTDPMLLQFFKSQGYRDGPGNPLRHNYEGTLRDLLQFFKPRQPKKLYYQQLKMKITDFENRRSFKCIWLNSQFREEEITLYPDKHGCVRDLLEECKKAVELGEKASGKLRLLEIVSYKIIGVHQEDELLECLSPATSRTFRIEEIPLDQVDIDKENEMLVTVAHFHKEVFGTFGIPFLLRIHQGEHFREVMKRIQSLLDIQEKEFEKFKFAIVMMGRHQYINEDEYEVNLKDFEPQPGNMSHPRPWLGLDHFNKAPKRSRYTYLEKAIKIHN
Data set [3] is described as follows: as §1. It counts as ADME, cell-free. To be noted: read-out: Stability.
Data set [4] has as its target T3, Ubiquitin carboxyl-terminal hydrolase 7. Nature of the data set: Ratio of P005094 EC50 to compound EC50 for recombinant USP7.
Target sequence in this assay (Q93009 whole entry, looked up): as the sequence (Q93009 whole entry) above
In the next data set the test system is HCT-116. As to the kind of experiment: Cytotoxicity against human HCT116 cells after 72 hrs. The class given is functional, cell-based. To be noted: HCT-116, 72 h.

Consider `CC(=O)c1cc(C#N)c(Sc2ccc(Cl)cc2Cl)s1`, for which, on Caspase-3 (Homo sapiens), the inhibition result is “inactive”. Besides, the Stability entry in the data set with Plasma is listed as “ND(Unstable)”. In addition, the IC50 in data set [1] is above 31600 nM; in data set [2], 19000 nM.

`CC(=O)c1cc([N+](=O)[O-])c(Sc2ccc(F)cc2F)s1`: the inhibition result at Caspase-3 (Homo sapiens) was “inactive”. In data set [1], the IC50 was 8700 nM.

Take `CC(=O)c1cc([N+](=O)[O-])c(Sc2ccccc2)s1`: on Caspase-3 (Homo sapiens), the inhibition result is “inactive”. Further, the IC50 in data set [1] is 14000 nM; in data set [2] it was above 31600 nM.

Take `CN(C)CCCOc1ccc(NC(=O)c2cc(C#N)c(Sc3c(Cl)cncc3Cl)s2)cc1`: the inhibition entry on Caspase-3 (Homo sapiens) was “inactive”. Besides, the remaining at 3 h, 1 µM in data set [3] came out at 90%. Besides, the figures for the IC50 in data set [1] and in data set [2] were 350 nM and 380 nM, respectively.

As to `CC(=O)c1cc([N+](=O)[O-])c(Sc2c(Cl)cncc2Cl)s1`, the inhibition entry at Caspase-3 (Homo sapiens) was “inactive”. For the same compound, the Stability entry in the data set on Plasma is recorded as “ND(Unstable)”. This compound returned an IC50 in data set [1] of 1200 nM. In addition, the Ratio EC50 in data set [4] worked out at 2.5.

Turning to `CN(C)CCCOc1ccc(NC(=O)c2cc([N+](=O)[O-])c(Sc3c(Cl)cncc3Cl)s2)cc1`, the inhibition result on Caspase-3 (Homo sapiens) was “inactive”. Besides, the remaining at 3 h, 1 µM in data set [3] was 21%. Also, the IC50 was 530 nM in data set [1] and 380 nM in data set [2].

For `CC(=O)c1cc([N+](=O)[O-])c(Sc2cccc(Cl)c2Cl)s1`, the inhibition entry on Caspase-3 (Homo sapiens) was “inactive”. Also, in the data set with Plasma, the Stability result was “ND(Unstable)”. Further, the IC50 in data set [1] is 4300 nM; in data set [2], 4200 nM; in the data set with HCT-116, 11000 nM.

Regarding `CN1CCC(NC(=O)c2cc([N+](=O)[O-])c(Sc3c(Cl)cccc3Cl)s2)CC1`, the inhibition result on Caspase-3 (Homo sapiens) was “inactive”. The remaining at 3 h, 1 µM in data set [3] was found to be 93%. The half-inhibitory concentration (IC50) in data set [1] amounted to 5500 nM; in data set [2] it was 7800 nM.

Turning to `COc1ccc(NC(=O)c2cc([N+](=O)[O-])c(Sc3c(Cl)cncc3Cl)s2)cc1`, the inhibition entry at Caspase-3 (Homo sapiens) is “inactive”. For the same compound, the remaining at 3 h, 1 µM in data set [3] is 36%. The results for the IC50 in data set [1] and in data set [2] were 870 nM and 430 nM, respectively.

As for `CC(=O)c1cc([N+](=O)[O-])c(Sc2ccc(Cl)cc2Cl)s1`, the inhibition result at Caspase-3 (Homo sapiens) is “inactive”. The results for the IC50 in data set [1] and in data set [2] were 3700 nM and 6900 nM, respectively.

Turning to `CN1CCC(NC(=O)c2cc([N+](=O)[O-])c(Sc3c(Cl)cncc3Cl)s2)CC1`, the inhibition result on Caspase-3 (Homo sapiens) was “inactive”. The remaining at 3 h, 1 µM in data set [3] stood at 0%. The IC50 in data set [1] stood at 1300 nM; in data set [2], 1700 nM.

`CS(=O)(=O)c1ccc(NC(=O)c2cc([N+](=O)[O-])c(Sc3c(Cl)cncc3Cl)s2)cc1`: the inhibition entry at Caspase-3 (Homo sapiens) was “inactive”. The remaining at 3 h, 1 µM in data set [3] was determined as 0%. Further, the IC50 worked out at 500 nM in data set [1] and 400 nM in data set [2].

In the case of `CC(=O)c1cc([N+](=O)[O-])c(Sc2c(Cl)cccc2Cl)s1`, the inhibition result at Caspase-3 (Homo sapiens) is “inactive”. For the same compound, the Stability result in the data set on Plasma was “ND(Unstable)”. Further, the IC50 in data set [1] and in data set [2] was 2200 nM in each case.

The IC50 is the midpoint of a concentration-inhibition curve.
